This note sets out measurements from patent publication US20230348362A1, “LIPID COMPOUNDS AND LIPID NANOPARTICLE COMPOSITIONS” (Suzhou Abogen Biosciences Co., Ltd., priority 2021, published 2023).

Holding throughout (type): physicochemical
Series [1] in a line: Encapsulation efficiency of lipid nanoparticles, Quant-it Ribogreen RNA assay. As to conditions: LNP of lipid/DSPC/cholesterol/PEG-lipid 50:10:38.5:1.5 encapsulating hEPO mRNA. An outline of the steps:
(§1)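 LNPs made from ionizable lipid/DSPC/cholesterol/PEG-lipid (50:10:38.5:1.5) and mRNA in citrate pH 4 by microfluidic mixing, lipid:mRNA about 10:1–30:1 w/w, then dialysed into DPBS and filtered. Size and PDI measured by DLS in backscatter mode; encapsulation efficiency measured by RiboGreen assay.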

The nature of series [2]: Lipid nanoparticle size and polydispersity by dynamic light scattering. As to conditions: LNP of lipid/DSPC/cholesterol/PEG-lipid 50:10:38.5:1.5 encapsulating hEPO mRNA. An outline of the steps: as §1
Series [3] can be described thus: Apparent pKa of LNP formulations, TNS fluorescence assay. The conditions noted are these: LNP cationic lipid/DSPC/cholesterol/DMG-PEG 50/10/38.5/1.5 mol %. As for the experimental part:
As reported in literature, the apparent pKa of LNP formulations correlates with the delivery efficiency of LNPs for nucleic acids in vivo. The apparent pKa of each formulation was determined using an assay based on fluorescence of 2-(p-toluidino)-6-napthalene sulfonic acid (TNS). LNP formulations comprising of cationic lipid/DSPC/cholesterol/DMG-PEG (50/10/38.5/1.5 mol %) in PBS were prepared as described above. TNS was prepared as a 300 μM stock solution in distilled water. LNP formulations were diluted to 0.1 mg/mL total lipid in 3 mL of buffered solutions containing 50 mM sodium citrate, 50 mM sodium phosphate, 50 mM sodium borate, and 30 mM sodium chloride where the pH ranged from 3 to 9. An aliquot of the TNS solution was added to give a final concentration of […] and following vortex mixing fluorescence intensity was measured at room temperature in a Molecular Devices Spectramax iD3 spectrometer using excitation and mission wavelengths of 325 nm and 435 nm. A sigmoidal best fit analysis was applied to the fluorescence data and the pKa value was measured as the pH giving rise to half-maximal fluorescent intensity.

Turning to `CCCCCCCCCCCC(=O)OCCCCCN(CCN(CCO)CCCCCOC(=O)CC(CCCCCCCC)CCCCCCCC)C1CC1` [Compound 91], the “Encapsulation Efficiency” value in series [1] amounted to 87.92%. Moreover, in series [2], the polydispersity came to 0.115 and the “size (nm)” value is reported as 64.49 nm. Further, the “Apparent Pka” value in series [3] is reported as 6.042.

With `CCCCCCCCC(CCCCCC)COC(=O)CCCCCN(CC=C(C)C)CCN(CCO)CCCCC1COC(C(CCCCCC)CCCCCCCC)OC1` (stereo not drawn) [Compound 151], in series [1], the “Encapsulation Efficiency” value is 92.43%. In series [2], the polydispersity was 0.064 and the “size (nm)” value worked out at 61.84 nm. For the same compound, in series [3], the “Apparent Pka” value is listed as 6.368.

In the case of `CCCCCCCCC(CCCCCCCC)COC(=O)CCCCCN(CCN(CCCCCC(=O)OCC(CCCCCCCC)CCCCCCCC)C1CCC(O)CC1)C1CCC1` (stereo not drawn) [Compound 55], the “Encapsulation Efficiency” value in series [1] is given as 95.6%. For the same compound, in series [2], the polydispersity is recorded as 0.071 and the “size (nm)” value worked out at 83.97 nm. The “Apparent Pka” value in series [3] is on record as 5.951.

For the compound `CCCCCCCCCCCOC(=O)CCOCCN(CCN(CCO)CCOCCC(=O)OCC(CCCCCCCC)CCCCCCCC)C1CCC1` [Compound 116], the “Encapsulation Efficiency” value in series [1] came to 87.45%. In series [2], the polydispersity came out at 0.102 and the “size (nm)” value worked out at 77.45 nm. The “Apparent Pka” value in series [3] turned out to be 6.826.

Turning to `CCCCCCCCC(CCCCCCCC)COC(=O)CCCCCN(CCO)CCN(CCCCCC(=O)OCC(CCCCCCCC)CCCCCCCC)C1CCC(C)(C)CC1` [Compound 31], the “Encapsulation Efficiency” value in series [1] is 88.2%. Further, in series [2], the polydispersity amounted to 0.092 and the “size (nm)” value turned out to be 54.55 nm. Moreover, the “Apparent Pka” value in series [3] is 5.708.

As to `CCCCCCCCC(CCCCCCCC)CNC(=O)CCCCCN(CCO)CCN(CCCCCC(=O)OCC(CCCCCCCC)CCCCCCCC)C1CCCCC1` [Compound 23], the “Encapsulation Efficiency” value in series [1] is 95.5%. Also, in series [2], the polydispersity came out at 0.039 and the “size (nm)” value is on record as 57.5 nm. Moreover, the “Apparent Pka” value in series [3] was 6.686.

For the compound `CCCCCCCCC(CCCCCCCC)COC(=O)CCCCCN(CCNc1c(N(C)C)c(=O)c1=O)CCN(CCCCCC(=O)OCC(CCCCCCCC)CCCCCCCC)C1CCC1` [Compound 85], in series [1], the “Encapsulation Efficiency” value came to 93.27%. In addition, in series [2], the polydispersity is on record as 0.096 and the “size (nm)” value came out at 67.44 nm. For the same compound, in series [3], the “Apparent Pka” value is 6.126.

As for `CCCCCCCCC(CCCCCCCC)CNC(=O)CCCCCN(CCO)CCN(CCCCCC(=O)NCC(CCCCCCCC)CCCCCCCC)C1CCCCC1` [Compound 13], in series [1], the “Encapsulation Efficiency” value worked out at 83.3%. Moreover, in series [2], the polydispersity came out at 0.105 and the “size (nm)” value turned out to be 60.71 nm. In series [3], the “Apparent Pka” value was found to be 6.633.

For `CCCCCCCCC(CCCCCCCC)COC(=O)CCCCCN(CCO)CCN(CCCCCOC(=O)N(CCCCCCCC)CCCCCCCC)C1CCCCC1` [Compound 127], the “Encapsulation Efficiency” value in series [1] amounted to 91.77%. Moreover, in series [2], the polydispersity was 0.090 and the “size (nm)” value came to 69.05 nm. The “Apparent Pka” value in series [3] worked out at 6.226.

With `CCCCCCCCCCCOC(=O)CCCCCN(CCN(CCO)CCCCCC(=O)OCC(CCCCCCCC)CCCCCCCC)C1CCCCCC1` [Compound 107], the “Encapsulation Efficiency” value in series [1] was 93.22%. Besides, in series [2], the polydispersity came to 0.121 and the “size (nm)” value turned out to be 55.62 nm. In series [3], the “Apparent Pka” value stood at 6.411.

Regarding `CCCCCCCCC(CCCCCC)CNC(=O)CCCCCN(CCCCCO)CCN(CCCCC(COC(=O)CCCCCCC)COC(=O)CCCCCCC)C1CCCC1` (stereo not drawn) [Compound 224], in series [1], the “Encapsulation Efficiency” value amounted to 85.65%. Further, in series [2], the polydispersity is reported as 0.027 and the “size (nm)” value was 104.1 nm. For the same compound, the “Apparent Pka” value in series [3] is 6.748.

Take `CCCCCCCCCCCOC(=O)CCCCCN(CCN(CCO)CCCCCOC(=O)OCC(CCCCCCCC)CCCCCCCC)C1CCCCC1` [Compound 128]: the “Encapsulation Efficiency” value in series [1] was 92.31%. For the same compound, in series [2], the polydispersity is reported as 0.093 and the “size (nm)” value is listed as 60.57 nm. In series [3], the “Apparent Pka” value was 6.539.
